pEC50, pIC50: −log10 of the molar value. Where two headings read alike, the source gives them in different places.
Legend:
progesterone receptor [1] = biological target: T1, progesterone receptor (Homo sapiens (Human), UniProt P06401); assay: Progestational action by transactivation test (CHO K1 reporter cells, luciferase); type: cell-based; conditions: for Emax: read-out: In vitro Transactivation Progesterone receptor Agonisten Efficacy
Experimental: 4. Determination of Progestational Action by Means of Transactivation Tests:
The test compounds were added eight hours later, and the cells were incubated with the compounds for 16 hours. The tests were carried out in triplicate. At the end of incubation the medium containing the effector was removed and replaced with lysis buffer. After luciferase assay substrate (Promega, #E1501) had been added, the 96-well plates were then put in a microplate luminometer (Pherastar, BMG labtech), and the luminescence was measured. The IC50 values were evaluated using software for calculating dose-effect relations.
Target sequence in this assay (P06401 679-913, species assumed): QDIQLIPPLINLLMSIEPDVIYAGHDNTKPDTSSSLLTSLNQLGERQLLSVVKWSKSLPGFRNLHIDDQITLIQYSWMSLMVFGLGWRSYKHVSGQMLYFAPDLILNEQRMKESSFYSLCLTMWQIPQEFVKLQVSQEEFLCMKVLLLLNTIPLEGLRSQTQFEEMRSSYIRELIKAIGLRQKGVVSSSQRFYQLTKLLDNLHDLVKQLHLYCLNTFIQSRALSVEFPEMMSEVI

progesterone receptor [2] = biological target: T1, progesterone receptor; assay: Progesterone receptor binding test (displacement of 3H-progesterone); conditions: for Receptor binding Progesterone receptor Competition factor: CF relative to progesterone (=1), CF <1 means higher affinity; for CF PR/CF MR: ratio of competition factors, progesterone receptor to mineralocorticoid receptor; for pIC50: read-out: Receptor binding Progesterone receptor IC50, cytosol from PR-expressing insect cells (Hi5), 3H-progesterone
Target sequence in this assay (P06401 whole entry, species assumed): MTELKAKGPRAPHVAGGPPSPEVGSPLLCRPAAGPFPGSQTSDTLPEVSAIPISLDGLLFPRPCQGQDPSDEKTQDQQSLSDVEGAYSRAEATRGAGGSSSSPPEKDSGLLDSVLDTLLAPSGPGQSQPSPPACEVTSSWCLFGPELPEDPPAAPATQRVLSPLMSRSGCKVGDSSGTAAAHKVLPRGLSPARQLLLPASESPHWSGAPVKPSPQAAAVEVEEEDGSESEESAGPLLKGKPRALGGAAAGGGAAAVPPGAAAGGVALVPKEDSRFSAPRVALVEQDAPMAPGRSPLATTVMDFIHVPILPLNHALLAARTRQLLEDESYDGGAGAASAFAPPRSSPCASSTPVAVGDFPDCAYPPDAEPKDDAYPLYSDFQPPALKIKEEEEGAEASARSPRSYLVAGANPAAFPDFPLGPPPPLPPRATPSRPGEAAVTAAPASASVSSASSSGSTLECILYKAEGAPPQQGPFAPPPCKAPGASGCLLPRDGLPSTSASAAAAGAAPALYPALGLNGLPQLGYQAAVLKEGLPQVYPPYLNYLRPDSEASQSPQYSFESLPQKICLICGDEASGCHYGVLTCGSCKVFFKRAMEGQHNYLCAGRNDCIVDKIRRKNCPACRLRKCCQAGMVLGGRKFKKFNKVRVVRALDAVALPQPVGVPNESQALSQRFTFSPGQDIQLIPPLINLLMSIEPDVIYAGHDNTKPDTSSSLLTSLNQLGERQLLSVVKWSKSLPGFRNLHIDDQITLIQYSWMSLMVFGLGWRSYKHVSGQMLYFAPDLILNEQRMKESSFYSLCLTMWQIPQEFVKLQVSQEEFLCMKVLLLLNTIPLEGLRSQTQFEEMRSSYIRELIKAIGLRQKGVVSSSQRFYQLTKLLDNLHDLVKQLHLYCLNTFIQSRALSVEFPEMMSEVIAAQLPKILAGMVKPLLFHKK
Experimental: Progesterone Receptor Binding Test:
Using cytosol from progesterone receptor-expressing insect cells (Hi5), competitive binding to the progesterone receptor was determined from the ability to displace ^3H-progesterone as reference substance from the receptor.

[3] = biological target: mineralocorticoid receptor (Homo sapiens (Human), UniProt P08235); assay: Mineralocorticoid receptor binding test (displacement of 3H-aldosterone); conditions: cytosol from MR-expressing insect cells (Hi5), reference 3H-aldosterone
Source text: 2. Mineralocorticoid Receptor Binding Test:

androgen receptor = androgen receptor (Homo sapiens (Human), UniProt P10275); assay: Androgen receptor binding test (displacement of 3H-testosterone); conditions: cytosol from AR-expressing insect cells (Hi5); for Receptor binding Androgen receptor Competition factor: reference 3H-testosterone; for pIC50: read-out: Receptor binding Androgen receptor IC50, 3H-testosterone
Experimental: Androgen Receptor Binding Test:
The test was carried out as in 1, with the following modifications: cytosol from androgen receptor-expressing insect cells (Hi5) was used, and the reference substance was ^3H-testosterone.

[4] = CHO K1 PR-LBD/Gal4 luciferase reporter cells, 16 hours incubation, read-out: In vitro Transactivation Progesterone receptor Agonisten EC50
[5] = CHO K1 PR-LBD/Gal4 luciferase reporter cells, 16 hours incubation

Chain of androgen receptor (P10275 whole entry, species assumed, the tested form may be a part): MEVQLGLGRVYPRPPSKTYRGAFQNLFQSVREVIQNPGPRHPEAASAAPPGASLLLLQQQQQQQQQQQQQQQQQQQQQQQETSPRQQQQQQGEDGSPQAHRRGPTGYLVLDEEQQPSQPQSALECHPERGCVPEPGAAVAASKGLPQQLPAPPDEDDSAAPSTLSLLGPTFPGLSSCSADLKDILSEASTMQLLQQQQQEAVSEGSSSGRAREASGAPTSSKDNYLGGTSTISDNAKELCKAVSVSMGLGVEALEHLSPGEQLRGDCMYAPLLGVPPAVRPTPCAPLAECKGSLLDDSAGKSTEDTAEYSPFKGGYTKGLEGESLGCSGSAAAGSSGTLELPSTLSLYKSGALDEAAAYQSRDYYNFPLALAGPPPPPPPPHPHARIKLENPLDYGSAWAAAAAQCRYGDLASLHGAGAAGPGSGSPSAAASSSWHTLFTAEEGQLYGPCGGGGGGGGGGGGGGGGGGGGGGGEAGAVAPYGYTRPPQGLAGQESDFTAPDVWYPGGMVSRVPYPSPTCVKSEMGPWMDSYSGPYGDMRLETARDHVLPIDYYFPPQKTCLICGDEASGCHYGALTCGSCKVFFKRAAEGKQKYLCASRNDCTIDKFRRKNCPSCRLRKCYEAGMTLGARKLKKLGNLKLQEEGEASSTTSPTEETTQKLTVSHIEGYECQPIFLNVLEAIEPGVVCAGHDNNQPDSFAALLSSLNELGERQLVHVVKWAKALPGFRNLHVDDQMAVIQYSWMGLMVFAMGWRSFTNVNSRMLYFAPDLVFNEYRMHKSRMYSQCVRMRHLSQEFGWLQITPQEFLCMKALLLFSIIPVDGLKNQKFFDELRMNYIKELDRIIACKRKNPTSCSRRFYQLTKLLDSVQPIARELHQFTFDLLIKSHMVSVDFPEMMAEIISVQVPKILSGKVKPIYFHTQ
Chain of mineralocorticoid receptor (P08235 whole entry, species assumed): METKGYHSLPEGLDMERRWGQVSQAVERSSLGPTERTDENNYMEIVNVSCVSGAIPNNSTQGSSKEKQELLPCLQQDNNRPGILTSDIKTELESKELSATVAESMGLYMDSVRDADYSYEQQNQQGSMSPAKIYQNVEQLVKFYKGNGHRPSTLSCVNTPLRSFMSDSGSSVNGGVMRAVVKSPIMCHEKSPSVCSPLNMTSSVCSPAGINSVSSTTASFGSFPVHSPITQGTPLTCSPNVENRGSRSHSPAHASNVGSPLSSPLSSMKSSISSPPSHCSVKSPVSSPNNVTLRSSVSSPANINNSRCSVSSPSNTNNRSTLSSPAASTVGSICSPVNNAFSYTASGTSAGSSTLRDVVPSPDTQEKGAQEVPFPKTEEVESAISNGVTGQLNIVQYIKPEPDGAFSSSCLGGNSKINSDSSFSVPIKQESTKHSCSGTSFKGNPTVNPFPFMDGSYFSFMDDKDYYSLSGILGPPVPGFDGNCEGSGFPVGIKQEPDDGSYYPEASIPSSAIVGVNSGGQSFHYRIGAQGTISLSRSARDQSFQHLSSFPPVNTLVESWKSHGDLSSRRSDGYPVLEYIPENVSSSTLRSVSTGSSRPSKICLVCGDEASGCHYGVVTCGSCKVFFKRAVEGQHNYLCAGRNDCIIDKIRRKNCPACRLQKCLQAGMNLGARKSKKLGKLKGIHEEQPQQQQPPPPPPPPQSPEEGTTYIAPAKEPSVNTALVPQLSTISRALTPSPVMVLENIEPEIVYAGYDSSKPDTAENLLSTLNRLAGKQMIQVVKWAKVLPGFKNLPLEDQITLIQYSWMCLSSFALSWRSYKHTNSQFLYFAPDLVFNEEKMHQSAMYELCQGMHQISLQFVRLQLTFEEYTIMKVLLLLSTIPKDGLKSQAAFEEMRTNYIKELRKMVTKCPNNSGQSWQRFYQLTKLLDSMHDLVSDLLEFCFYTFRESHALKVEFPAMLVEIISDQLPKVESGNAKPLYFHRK

C[C@]12CCC3C4CCC(=O)C=C4[C@@H]4C[C@@H]4C3C1C1CC1[C@@]21CCC(=O)O1 (stereo in doubt) [compound 9]
pEC50 (progesterone receptor [1]; [4]): 9.00 | Emax (progesterone receptor [1]; CHO-K1, 16 h): 77.4%

C[C@]12CCC(=O)C=C1[C@@H]1C[C@@H]1[C@H]1[C@@H]3[C@@H]4C[C@@H]4[C@@]4(CCC(=O)O4)[C@@]3(C)CC[C@@H]12 [A, 6β,7β-15β,16β-dimethylene-3-oxo-17-pregn-4-ene-21,17β-carbolactone, reference compound]
Receptor binding Progesterone receptor Competition factor (progesterone receptor [2]): 2.7 | Receptor binding Mineralocorticoid receptor Competition factor [3]: 0.5 | Emax (progesterone receptor [1]; [5]): 72.2%

C[C@]12CCC3C4CCC(=O)C=C4CCC3C1C1CC1[C@@]21CCC(=O)O1 (stereo partly drawn) [Example 1, 17β-Hydroxy-15α,16α-methylene-19-nor-17α-pregna-4-en-3-one-21-carboxylic acid γ-lactone]
Receptor binding Mineralocorticoid receptor Competition factor [3]: 1.8 | Emax (progesterone receptor [1]; CHO-K1, 16 h): 55.9% | Receptor binding Androgen receptor Competition factor (androgen receptor): 110.0 | pIC50 (androgen receptor): 8.22

CC1CC2=CC(=O)CCC2C2CC[C@@]3(C)C(C4CC4[C@@]34CCC(=O)O4)C12 (stereo partly drawn) [Example 3, 17β-Hydroxy-7α-methyl-15α,16α-methylene-19-nor-17α-pregna-4-en-3-one-21-carboxylicacid γ-lactone]
Receptor binding Mineralocorticoid receptor Competition factor [3]: 1.3 | Emax (progesterone receptor [1]; CHO-K1, 16 h): 87% | Receptor binding Androgen receptor Competition factor (androgen receptor): 2.8 | pIC50 (androgen receptor): 7.21

CCC1CC2=CC(=O)CCC2C2CC[C@@]3(C)C(C4CC4[C@@]34CCC(=O)O4)C12 (stereo partly drawn) [Example 4, 17β-Hydroxy-7α-ethyl-15α,16α-methylene-19-nor-17α-pregna-4-en-3-one-21-carboxylic acid γ-lactone]
Receptor binding Progesterone receptor Competition factor (progesterone receptor [2]): 1.74 | CF PR/CF MR (progesterone receptor [2]): 1.45 | pIC50 (progesterone receptor [2]): 7.48 | Receptor binding Mineralocorticoid receptor Competition factor [3]: 1.2 | pEC50 (progesterone receptor [1]): 9.15 | Emax (progesterone receptor [1]; CHO-K1, 16 h): 56.7% | Receptor binding Androgen receptor Competition factor (androgen receptor): 5.6 | pIC50 (androgen receptor): 7.13

C=CC1CC2=CC(=O)CCC2C2CC[C@@]3(C)C(C4CC4[C@@]34CCC(=O)O4)C12 (stereo partly drawn) [Example 5, 17β-Hydroxy-7α-vinyl-15α,16α-methylene-19-nor-17α-pregna-4-en-3-one-21-carboxylic acid γ-lactone]
Receptor binding Progesterone receptor Competition factor (progesterone receptor [2]): 1.16 | CF PR/CF MR (progesterone receptor [2]): 0.83 | pIC50 (progesterone receptor [2]): 7.82 | Receptor binding Mineralocorticoid receptor Competition factor [3]: 1.4 | pEC50 (progesterone receptor [1]): 8.47 | Emax (progesterone receptor [1]; CHO-K1, 16 h): 66.1% | Receptor binding Androgen receptor Competition factor (androgen receptor): 3.0 | pIC50 (androgen receptor): 7.26

C[C@]12CCC3C4CCC(=O)C=C4CC(C4CC4)C3C1C1CC1[C@@]21CCC(=O)O1 (stereo partly drawn) [Example 6, 17β-Hydroxy-7α-cyclopropyl-15α,16α-methylene-19-nor-17α-pregna-4-en-3-one-21-carboxylic acid γ-lactone]
Receptor binding Progesterone receptor Competition factor (progesterone receptor [2]): 2.65 | CF PR/CF MR (progesterone receptor [2]): 1.66 | pIC50 (progesterone receptor [2]): 7.29 | Receptor binding Mineralocorticoid receptor Competition factor [3]: 1.6 | pEC50 (progesterone receptor [1]): 9.00 | Emax (progesterone receptor [1]; CHO-K1, 16 h): 48.6% | Receptor binding Androgen receptor Competition factor (androgen receptor): 6.3 | pIC50 (androgen receptor): 7.11

C[C@]12CCC3C4CCC(=O)C=C4[C@H](CO)CC3C1C1CC1[C@@]21CCC(=O)O1 (stereo partly drawn) [Example 7, 17β-Hydroxy-6β-hydroxymethyl-15α,16α-methylene-19-nor-17α-pregna-4-en-3-one-21-carboxylic acid γ-lactone]
Receptor binding Progesterone receptor Competition factor (progesterone receptor [2]): 49.90 | CF PR/CF MR (progesterone receptor [2]): 23.76 | pIC50 (progesterone receptor [2]): 5.96 | Receptor binding Mineralocorticoid receptor Competition factor [3]: 2.1 | pEC50 (progesterone receptor [1]; [4]): 6.04 | Emax (progesterone receptor [1]; [5]): 22.8% | Receptor binding Androgen receptor Competition factor (androgen receptor): 1000.0 | pIC50 (androgen receptor): 5.00

C[C@]12CCC3C4CCC(=O)C=C4C4(CC4)CC3C1C1CC1[C@@]21CCC(=O)O1 (stereo partly drawn) [Example 8, 6,6-(1,2-Ethanediyl)-17β-hydroxy-15α,16α-methylene-19-nor-17α-pregna-4-en-3-one-21-carboxylic acid γ-lactone]
Receptor binding Progesterone receptor Competition factor (progesterone receptor [2]): 0.71 | CF PR/CF MR (progesterone receptor [2]): 0.79 | pIC50 (progesterone receptor [2]): 8.05 | Receptor binding Mineralocorticoid receptor Competition factor [3]: 0.9 | pEC50 (progesterone receptor [1]): 10.00 | Emax (progesterone receptor [1]; CHO-K1, 16 h): 69.7% | Receptor binding Androgen receptor Competition factor (androgen receptor): 1.4 | pIC50 (androgen receptor): 7.59

C[C@]12CCC3C4CCC(=O)C=C4C4CC4C3C1C1CC1[C@@]21CCC(=O)O1 (stereo partly drawn) [Example 9 (B), 17β-hydroxy-6α,7α-15α,16α-bismethylene-19-nor-17α-pregna-4-en-3-one-21-carboxylic acid γ-lactone]
Emax (progesterone receptor [1]; [5]): 107%

— patent US8987239B2, “19-nor-steroid derivatives with a 15α,16α-methylene group and a saturated 17,17-spirolactone ring, use thereof, and medicaments containing said derivatives” (Bayer Intellectual Property GmbH, priority 2007, dated 2015)
